Solubility and melting point data for six molecules are collected here from patent US10795272B2, “Triphenylamine derivative, and charge transport material and electrophotographic photoreceptor using the same” (TAKASAGO INTERNATIONAL CORPORATION, priority 2016, dated 2020).

Series [1] is described as follows: Solubility in tetrahydrofuran. Format: physicochemical. The conditions noted are these: 25° C.; weight completely dissolved in 1 g of tetrahydrofuran. The procedure:
Compound (1-1) was dissolved in 1 g of tetrahydrofuran at 25° C.
In the same manner as in Example 14, experiments were conducted by using Compound (1-4) or (1-9).
In the same manner as in Example 14, experiments were conducted by using Comparative Compound (5) which was a compound described in Japanese Patent Application Publication No. Hei 3-149560.

`C(=Cc1ccc(N(c2ccccc2)c2ccc(C=C(c3ccccc3)c3ccccc3)cc2)cc1)c1ccc(C=Cc2ccc(N(c3ccccc3)c3ccc(C=C(c4ccccc4)c4ccccc4)cc3)cc2)cc1` [Comparative Compound (5), reference compound] returned a Solubility in series [1] of 0.03 g/g tetrahydrofuran.

The melting point is the temperature, or range, at which the solid turns liquid. In turn, `Cc1ccc(N(c2ccc(/C=C/c3ccc(/C=C/C=C(c4ccccc4)c4ccccc4)cc3)cc2)c2ccc(/C=C/c3ccc(/C=C/c4ccc(N(c5ccc(C)cc5)c5ccc(/C=C/c6ccc(/C=C/C=C(c7ccccc7)c7ccccc7)cc6)cc5)cc4)cc3)cc2)cc1` [Compound (1-1)] showed a melting point of 178 to 180 °C. Besides, the Solubility in series [1] is recorded as 0.16 g/g tetrahydrofuran.

`C(/C=C/c1ccc(/C=C/c2ccc(N(c3ccccc3)c3ccc(/C=C/c4ccc(/C=C/c5ccc(N(c6ccccc6)c6ccc(/C=C/c7ccc(/C=C/C=C(c8ccccc8)c8ccccc8)cc7)cc6)cc5)cc4)cc3)cc2)cc1)=C(c1ccccc1)c1ccccc1` [Compound (1-4)] returned a melting point of 162 to 164 °C. Besides, in series [1], the Solubility is recorded as 0.13 g/g tetrahydrofuran.

On to `Cc1ccc(N(c2ccc(/C=C/c3ccc(/C=C/C=C(c4ccccc4)c4ccccc4)cc3)cc2)c2ccc(/C=C/c3ccc(/C=C/c4ccc(N(c5ccc(/C=C/c6ccc(/C=C/C=C(c7ccccc7)c7ccccc7)cc6)cc5)c5ccc(C)cc5C)cc4)cc3)cc2)c(C)c1` [Compound (1-7)], for which the melting point was 161 to 163 °C.

`COc1ccc(N(c2ccc(/C=C/c3ccc(/C=C/C=C(c4ccccc4)c4ccccc4)cc3)cc2)c2ccc(/C=C/c3ccc(/C=C/c4ccc(N(c5ccc(/C=C/c6ccc(/C=C/C=C(c7ccccc7)c7ccccc7)cc6)cc5)c5ccc(OC)cc5)cc4)cc3)cc2)cc1` [Compound (1-9)] displayed a melting point of 222 to 224 °C. The Solubility in series [1] came out at 0.14 g/g tetrahydrofuran.

For the molecule `Cc1ccc(C(=C/C=C/c2ccc(/C=C/c3ccc(N(c4ccc(/C=C/c5ccc(/C=C/c6ccc(N(c7ccc(/C=C/c8ccc(/C=C/C=C(c9ccc(C)cc9)c9ccc(C)cc9)cc8)cc7)c7ccc(C)cc7C)cc6)cc5)cc4)c4ccc(C)cc4C)cc3)cc2)c2ccc(C)cc2)cc1` [Compound (1-17)], the melting point is 255 to 257 °C.
